Experimental data published in BindingDB's records for doi:10.1016/j.bioorg.2015.02.002 (Bezmialem Vakif University, 2015).

What was measured:
[1] = biological target: Carboxylic ester hydrolase (Equus caballus, UniProt Q9N1N9); test: Anticholinesterase Activity Assays; details: pH 8
Protocol: (§1) The substrates of the reaction were acetylthiocholine iodide and butyrylthiocholine iodide. 5,5'-dithio-bis(2-nitrobenzoic) acid (DTNB) was used for the measurement of the anticholinesterase activity. The solutions of the samples and galantamine in n-propanol were prepared at concentration of 4000 µg/mL. […] 10 µL of DTNB solution was prepared by adding 2.0 mL of pH 7.0 and 4.0 mL of pH 8.0 phosphate buffers to a mixture of 1.0 mL of 16 mg/mL DTNB and 7.5 mg/mL NaHCO3 in pH 7.0 phosphate buffers. The reaction was initiated by the addition of 10 µL (7.1 mM) acetylthiocholine iodide (or 0.79 mM butyrylthiocholine iodide). Propyl alcohol was used as a solvent to controls. The hydrolysis of these substrates was monitored at 412 nm.

Acetylcholinesterase = Acetylcholinesterase (Electrophorus electricus, UniProt O42275); test: Anticholinesterase Activity Assays; details: pH 8
Protocol: as §1

Chain of Acetylcholinesterase (O42275 whole entry): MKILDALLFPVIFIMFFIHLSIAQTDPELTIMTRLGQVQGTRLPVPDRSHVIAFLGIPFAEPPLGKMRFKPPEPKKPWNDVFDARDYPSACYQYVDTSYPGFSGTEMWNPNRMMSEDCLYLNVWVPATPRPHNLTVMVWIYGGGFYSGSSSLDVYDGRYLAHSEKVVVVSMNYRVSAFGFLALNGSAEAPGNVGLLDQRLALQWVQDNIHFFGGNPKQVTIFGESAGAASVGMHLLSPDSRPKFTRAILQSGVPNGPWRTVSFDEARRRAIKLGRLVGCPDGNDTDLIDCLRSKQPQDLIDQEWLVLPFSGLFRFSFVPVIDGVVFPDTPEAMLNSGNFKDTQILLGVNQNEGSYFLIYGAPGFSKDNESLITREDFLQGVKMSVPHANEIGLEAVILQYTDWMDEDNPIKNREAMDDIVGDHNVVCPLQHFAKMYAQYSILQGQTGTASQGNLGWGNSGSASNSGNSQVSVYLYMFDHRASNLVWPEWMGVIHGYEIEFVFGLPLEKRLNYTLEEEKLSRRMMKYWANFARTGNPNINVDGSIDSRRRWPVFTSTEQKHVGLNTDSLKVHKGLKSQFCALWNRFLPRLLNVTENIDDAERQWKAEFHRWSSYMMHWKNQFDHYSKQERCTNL
Chain of Carboxylic ester hydrolase (Q9N1N9 whole entry): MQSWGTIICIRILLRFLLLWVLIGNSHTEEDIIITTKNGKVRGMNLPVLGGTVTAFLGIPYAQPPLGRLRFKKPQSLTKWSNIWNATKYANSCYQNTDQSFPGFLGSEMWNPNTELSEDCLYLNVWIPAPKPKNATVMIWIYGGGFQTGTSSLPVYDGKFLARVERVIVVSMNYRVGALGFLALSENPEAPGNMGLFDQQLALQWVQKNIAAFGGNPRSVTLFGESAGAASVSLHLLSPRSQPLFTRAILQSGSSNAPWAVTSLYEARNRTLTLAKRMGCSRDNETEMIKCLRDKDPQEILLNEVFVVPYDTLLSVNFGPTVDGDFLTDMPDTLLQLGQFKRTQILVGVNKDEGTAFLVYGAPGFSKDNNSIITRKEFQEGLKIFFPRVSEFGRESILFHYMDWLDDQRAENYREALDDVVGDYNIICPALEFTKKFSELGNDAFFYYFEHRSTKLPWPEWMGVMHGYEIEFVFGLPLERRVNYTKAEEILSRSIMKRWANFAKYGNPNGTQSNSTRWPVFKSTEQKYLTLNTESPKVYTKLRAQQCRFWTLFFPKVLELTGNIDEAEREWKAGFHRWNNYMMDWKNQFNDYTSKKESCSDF

Compound	IC50 [1] [µM]	IC50 (Acetylcholinesterase) [µM]
O=C(Nc1ccc(Cl)cc1)Nc1nc(-c2cc3ccccc3oc2=O)cs1 [1-(4-Chlorophenyl)-3-(4-(2-oxo-2H-chromen-3-yl)thiazol-2-yl)urea (e11)]	88.4	38.1
COc1cccc2cc(-c3csc(NC(=O)Nc4ccc(Br)cc4)n3)c(=O)oc12 [1-(4-Bromophenyl)-3-(4-(8-methoxy-2-oxo-2H-chromen-3-yl)thiazol-2-yl)urea (e25)]		69.1
COc1ccc(NC(=O)Nc2nc(-c3cc4cccc(OC)c4oc3=O)cs2)cc1 [1-(4-(8-Methoxy-2-oxo-2H-chromen-3-yl)thiazol-2-yl)-3-(4-methoxyphenyl)urea (e15)]	99.6	119
COc1cccc(NC(=O)Nc2nc(-c3cc4cc([N+](=O)[O-])ccc4oc3=O)cs2)c1 [1-(3-Methoxyphenyl)-3-(4-(6-nitro-2-oxo-2H-chromen-3-yl)thiazol-2-yl)urea (e27)]	77.5	38.7
COc1ccc(NC(=O)Nc2nc(-c3cc4cc([N+](=O)[O-])ccc4oc3=O)cs2)cc1 [1-(4-Methoxyphenyl)-3-(4-(6-nitro-2-oxo-2H-chromen-3-yl)thiazol-2-yl)urea (e28)]	118	> 200
O=C(Nc1ccc(I)cc1)Nc1nc(-c2cc3cc([N+](=O)[O-])ccc3oc2=O)cs1 [1-(4-Iodophenyl)-3-(4-(6-nitro-2-oxo-2H-chromen-3-yl)thiazol-2-yl)urea (e34)]	97.5	26.7
O=C(Nc1ccccc1)Nc1nc(-c2cc3cc([N+](=O)[O-])ccc3oc2=O)cs1 [1-(4-(6-Nitro-2-oxo-2H-chromen-3-yl)thiazol-2-yl)-3-phenylurea (e30)]	84.5	103
Cc1ccc(NC(=O)Nc2nc(-c3cc4ccccc4oc3=O)cs2)cc1 [1-(p-tolyl)-3-(4-(2-oxo-2H-chromen-3-yl)thiazol-2-yl)urea (e4)]	54.8	81.5
COc1ccc(NC(=O)Nc2nc(-c3cc4ccccc4oc3=O)cs2)cc1 [1-(4-Methoxyphenyl)-3-(4-(2-oxo-2H-chromen-3-yl)thiazol-2-yl)urea (e3)]	82.5	95.9
COc1cccc2cc(-c3csc(NC(=O)Nc4cccc(F)c4)n3)c(=O)oc12 [1-(3-Fluorophenyl)-3-(4-(8-methoxy-2-oxo-2H-chromen-3-yl)thiazol-2-yl)urea (e21)]	110	67
COc1cccc(NC(=O)Nc2nc(-c3cc4cccc(OC)c4oc3=O)cs2)c1 [1-(4-(8-Methoxy-2-oxo-2H-chromen-3-yl)thiazol-2-yl)-3-(3-methoxyphenyl)urea (e14)]	56.5	83.8
COc1ccc(NC(=S)Nc2nc(-c3cc4cccc(OC)c4oc3=O)cs2)cc1 [1-(4-(8-Methoxy-2-oxo-2H-chromen-3-yl)thiazol-2-yl)-3-(4-methoxyphenyl)thiourea (f3)]	31.2	41.2
O=C(Nc1cccc(F)c1)Nc1nc(-c2cc3ccccc3oc2=O)cs1 [1-(3-Fluorophenyl)-3-(4-(2-oxo-2H-chromen-3-yl)thiazol-2-yl)urea (e8)]	62.2	58.1
COc1cccc2cc(-c3csc(NC(=S)Nc4ccc(C)cc4)n3)c(=O)oc12 [1-(4-(8-Methoxy-2-oxo-2H-chromen-3-yl)thiazol-2-yl)-3-(ptolyl)thiourea (f4)]	36.5	51.9
COc1cccc2cc(-c3csc(NC(=O)Nc4ccc([N+](=O)[O-])cc4)n3)c(=O)oc12 [1-(4-(8-Methoxy-2-oxo-2H-chromen-3-yl)thiazol-2-yl)-3-(4-nitrophenyl)urea (e19)]	83.7	46.5
Cc1ccc(NC(=O)Nc2nc(-c3cc4cc([N+](=O)[O-])ccc4oc3=O)cs2)cc1 [1-(4-(6-Nitro-2-oxo-2H-chromen-3-yl)thiazol-2-yl)-3-(ptolyl)urea (e29)]	195	93.9
COc1cccc2cc(-c3csc(NC(=O)Nc4cccc(Cl)c4)n3)c(=O)oc12 [1-(4-(8-Methoxy-2-oxo-2H-chromen-3-yl)thiazol-2-yl)-3-(3-chlorophenyl)urea (e23)]	62.9	105
O=C(Nc1ccccc1)Nc1nc(-c2cc3ccccc3oc2=O)cs1 [1-Phenyl-3-(4-(2-oxo-2H-chromen-3-yl)thiazol-2-yl)urea (e5)]	74.6	73.2
COc1cccc(NC(=O)Nc2nc(-c3cc4ccccc4oc3=O)cs2)c1 [1-(3-Methoxyphenyl)-3-(4-(2-oxo-2H-chromen-3-yl)thiazol-2-yl)urea (e2)]	75	52.8
COc1cccc2cc(-c3csc(NC(=O)Nc4ccc(F)cc4)n3)c(=O)oc12 [1-(4-Fluorophenyl)-3-(4-(8-methoxy-2-oxo-2H-chromen-3-yl)thiazol-2-yl)urea (e22)]	63.3	115

Compound	IC50 [1] [µM]	IC50 (Acetylcholinesterase) [µM]
O=C(Nc1ccc(Cl)cc1)Nc1nc(-c2cc3cc([N+](=O)[O-])ccc3oc2=O)cs1 [1-(4-Chlorophenyl)-3-(4-(6-nitro-2-oxo-2H-chromen-3-yl)thiazol-2-yl)urea (e32)]	78.3	129
O=C(Nc1ccc(F)cc1)Nc1nc(-c2cc3ccccc3oc2=O)cs1 [1-(4-Fluorophenyl)-3-(4-(2-oxo-2H-chromen-3-yl)thiazol-2-yl)urea (e9)]	84.9	101
COc1cccc2cc(-c3csc(NC(=O)Nc4ccc(Cl)cc4)n3)c(=O)oc12 [1-(4-(8-Methoxy-2-oxo-2H-chromen-3-yl)thiazol-2-yl)-3-(4-chlorophenyl)urea (e24)]	70.6	107
COc1cccc2cc(-c3csc(NC(=S)Nc4ccc(F)cc4)n3)c(=O)oc12 [1-(4-(8-Methoxy-2-oxo-2H-chromen-3-yl)thiazol-2-yl)-3-(4-fluorophenyl)thiourea (f7)]	46.1	23.3
O=C(Nc1nc(-c2cc3ccccc3oc2=O)cs1)Nc1ccccc1F [1-(2-Flurophenyl)-3-(4-(2-oxo-2H-chromen-3-yl)thiazol-2-yl)urea (e7)]	34.5	31.5
O=C(Nc1ccc(F)cc1)Nc1nc(-c2cc3cc([N+](=O)[O-])ccc3oc2=O)cs1 [1-(4-Fluorophenyl)-3-(4-(6-nitro-2-oxo-2H-chromen-3-yl)thiazol-2-yl)urea (e31)]	4.93	134
O=C(Nc1ccc(Br)cc1)Nc1nc(-c2cc3cc([N+](=O)[O-])ccc3oc2=O)cs1 [1-(4-Bromophenyl)-3-(4-(6-nitro-2-oxo-2H-chromen-3-yl)thiazol-2-yl)urea (e33)]	92.5	46.2
O=c1oc2ccccc2cc1-c1csc(NC(=S)Nc2cccc(F)c2)n1 [1-(3-Fluorophenyl)-3-(4-(2-oxo-2H-chromen-3-yl)thiazol-2-yl)thiourea (f1)]	20.8	16.4
COc1cccc2cc(-c3csc(NC(=O)Nc4cccc([N+](=O)[O-])c4)n3)c(=O)oc12 [1-(4-(8-Methoxy-2-oxo-2H-chromen-3-yl)thiazol-2-yl)-3-(3-nitrophenyl)urea (e18)]	78.4	90
COc1cccc2cc(-c3csc(NC(=O)Nc4ccc(C)cc4)n3)c(=O)oc12 [1-(4-(8-Methoxy-2-oxo-2H-chromen-3-yl)thiazol-2-yl)-3-(ptolyl)urea (e16)]	95.6	82.1
COc1cccc2cc(-c3csc(NC(=S)Nc4ccccc4)n3)c(=O)oc12 [1-(4-(8-Methoxy-2-oxo-2H-chromen-3-yl)thiazol-2-yl)-3-phenylthiourea (f5)]	21.8	46
COc1cccc2cc(-c3csc(NC(=O)Nc4ccccc4)n3)c(=O)oc12 [1-(4-(8-Methoxy-2-oxo-2H-chromen-3-yl)thiazol-2-yl)-3-phenylurea (e17)]	77.5	84.1
COc1cccc2cc(-c3csc(NC(=O)Nc4ccccc4F)n3)c(=O)oc12 [1-(2-Fluorophenyl)-3-(4-(8-methoxy-2-oxo-2H-chromen-3-yl)thiazol-2-yl)urea (e20)]	79.6	66.2
COc1cccc2cc(-c3csc(NC(=S)Nc4ccc(Cl)cc4)n3)c(=O)oc12 [1-(4-(8-Methoxy-2-oxo-2H-chromen-3-yl)thiazol-2-yl)-3-(4-chlorophenyl)thiourea (f8)]	12.1	4.58
O=C(Nc1cccc(Cl)c1)Nc1nc(-c2cc3ccccc3oc2=O)cs1 [1-(3-Chlorophenyl)-3-(4-(2-oxo-2H-chromen-3-yl)thiazol-2-yl)urea (e10)]	66.6	111
O=c1oc2ccccc2cc1-c1csc(NC(=S)Nc2ccc(Cl)cc2)n1 [1-(4-Chlorophenyl)-3-(4-(2-oxo-2H-chromen-3-yl)thiazol-2-yl)thiourea (f2)]	24.3	7.63
COc1cccc2cc(-c3csc(NC(=O)Nc4ccc(I)cc4)n3)c(=O)oc12 [1-(4-Iodophenyl)-3-(4-(8-methoxy-2-oxo-2H-chromen-3-yl)thiazol-2-yl)urea (e26)]	159	61.3
COc1ccccc1NC(=O)Nc1nc(-c2cc3ccccc3oc2=O)cs1 [1-(2-Methoxyphenyl)-3-(4-(2-oxo-2H-chromen-3-yl)thiazol-2-yl)urea (e1)]	30.3	38
COc1cccc2cc(-c3csc(NC(=S)Nc4cccc(F)c4)n3)c(=O)oc12 [1-(4-(8-Methoxy-2-oxo-2H-chromen-3-yl)thiazol-2-yl)-3-(3-fluorophenyl)thiourea (f6)]	18	18.4
O=C(Nc1ccc(Br)cc1)Nc1nc(-c2cc3ccccc3oc2=O)cs1 [1-(4-Bromophenyl)-3-(4-(2-oxo-2H-chromen-3-yl)thiazol-2-yl)urea (e12)]	95.4	121
